Source: US6372793B1, “Method for treatment of a neurological disease characterized by impaired neuromodulator function” (Florida Agricultural & Mechanical University, priority 1999, dated 2002)
Counter-ions that a name gives are not always drawn.

Assays:
[1] = system: SAM-induced tremors; experiment: Effect of L-DOPA, SAH and NADA on SAM-induced tremors; format: in vivo, rat; conditions: for number of tremors / total duration of tremors: 20 min; for effect on the SAM-induced PD-like symptoms: icv before SAM
Method: (§1) Rats were cannulated for subsequent injections into the lateral ventricle as previously described (Charlton and Mack, 1994). Briefly, each rat was anesthetized with 400 mg/kg of chloral hydrate. A stainless steel guide cannula was stereotaxically placed 1.5 mm lateral and 0.6 mm caudal to the Bregma with the tip extended to the inner surface of the cranium, above the dura mater. At least 2 days following cannulation, injections were made through the cannula into the lateral ventricle with a 26 gauge insertion cannula, pre-measured to descend 5 mm from the surface of the skull into the lateral ventricle. Each injected rat was put in a cage which was then placed on the sensor assembly of the Tremor-Scan Monitor. The recording parameters were set according to the manufacturer's instructions by adjusting the Gain on the instrument to 4 which insured that most of the signals with large or small amplitudes remained within the detection limit or not reduced to the baseline respectively, as viewed on the computer monitoring screen. The noise that could interfere with the SAM-induced tremors is usually of low amplitude and was reduced to baseline levels by this gain setting. This setting was used for all subsequent recording and storage of the vibration signals due to tremor-like activities of the
Cannulated rats were injected either with PBS (5 mml), L-DOPA (1.5 mmmol), SAH (1.0 mmmol) or NADA (1.0 mmmol) followed by an injection of either 0.75 or 1.0 mmmol of SAM. Each compound was dissolved or finely suspended in PBS. They were then monitored for tremors on the Tremor Monitor for a period of 20 min.

[2] = system: rat brain membranes; experiment: SAM-dependent methylation of FC analogs by rat brain membranes; format: biochemical; conditions: 60 min; for methylation by rat nerve cell membranes in the presence of [3H-methyl]SAM: 200 mmM analog, 37° C.
Method: AFC, FTP and FTS (200 mmM) were each incubated for 60 min with rat brain membranes (240 mmg of protein) at 37° C. in 100 mM Tris-HCl, pH 7.4 containing SAM (10 mmM, 1.3 mmCi [^3H-methyl]-SAM), 5 mM MgSO4 and 0.1 M NaCl in a total incubation volume of 400 mml. The reactions were stopped with 5% TFA and chilled on ice. Hexane (400 mml) was added and the contents of the tubes mixed thoroughly. This was followed by centrifugation at 20,000 g for 2 min. The upper hexane layer was removed and 250 mml analyzed by reversed-phase HPLC on a Whatman column (C18, 4.6×150 mm). Methylated FC analogs were eluted from the column at a rate of 1 ml/min with a 0 to 100% gradient of acetonitrile in 0.1% TFA from the 3rd to the 15th min of each run. This composition was maintained for a further 2 min before re-equilibration of the column for the next sample. Detection was conducted with an online radiochromatographic detection system (INUS β-ram, Tampa, Fla.).

[3] = system: SAM-induced tremors; experiment: Effect of farnesylcysteine/prenylcysteine analogs on SAM-induced tremors and PD-like symptoms; format: in vivo, rat; conditions: 20 min
Method: as §1
AFC, FTP and FTS were each suspended in PBS and dissolved by adjusting the pH to 7.4 with NaOH followed by the addition of more PBS to make 0.2 mmol/ml solutions. PBS or each compound, dissolved in 5 mml of solution, was injected into the lateral ventricle of cannulated rats 5 min prior to SAM injections. SAM (1 mmmol in 5 mml of PBS) was injected and the movements recorded over a 20 min period as described above.

[4] = system: rat nerve cell membranes; experiment: In vitro association of [3H-methyl]SAM or 3H-MPP+ with rat nerve cell membranes; format: binding; conditions: for effect on 3H-MPP+ association with membranes: non-radioactive competitor; for effect on association of [3H-methyl]SAM radioactivity with membranes: 100 mmM non-radioactive compound in the incubation mixture
Method: Rat brain (1.76 g) was homogenized in 20 ml of 50 mM Tris-HCl, pH 7.4 containing 2.5 mM EDTA and 0.02% bovine serum albumin and centrifuged at 900×g for 10 min. The supernatant was transferred and the pellet re-suspended in the same buffer and centrifuged. The 900×g supernatants were combined and centrifuged at 20,000×g for 40 min. The supernatant was removed and the pellet resuspended in 5 ml of buffer, aliquoted and frozen at −70° C. until needed.
To understand whether the behavioral effects of SAM were due to interactions with cellular macromecules, [^3H-methyl]SAM (0.2 mmCi) was incubated with rat nerve cell membranes (30 mmg of protein) at 37° C. At the appropriate incubation periods, the reaction tubes were removed and centrifuged (13,000 rpm, MSE Centaur) for 10 min. The supernatant was discarded and the pellet suspended in scintillation fluid and their total radioactive content determined by scintillation counting.

[5] = system: 6-hydroxydopamine-lesioned rats; experiment: Amphetamine-induced ipsiversive rotation of 6-hydroxydopamine-lesioned rats (RotoScan Rotometer); format: in vivo, rat
[6] = system: rats; experiment: Tremors and PD-like symptoms induced by icv SAM, recorded on the Tremor-Scan Monitor; format: in vivo, rat
Method: as §1
The Tremor Monitor software, which allows for the determination of 1) the signal amplitude, 2) the number of cycles in each activity or episode, 3) the number of activities and 4) the duration of each activity or episode, aided in the storage and subsequent retrieval and analysis of the recorded activity profiles. Analysis of the stored data was achieved by altering the minimum and maximum frequency, amplitude and number of cycles to reflect the unique properties of each kind of movement and thus delineate the SAM-induced tremors from non-tremor activity signals.
The dose-dependent effects of SAM was also determined in cannulated rats injected with 0 (PBS), 0.5, 0.75 and 1.0 mmmol of SAM. Their tremor activities were recorded on the Tremor-Scan monitor for 20 min.
To determine the duration and magnitude of SAM-induced tremors, groups of cannulated rats were injected either with 1 mmmol of SAM or with 5 mml of PBS, as control. The animals were monitored on the Tremor-Scan Monitor for a duration of 2 h starting immediately after the injections.

[7] = system: rats; experiment: Effect of farnesylcysteine analogs on the movements of rats (Animal Activity Monitor); format: in vivo, rat; conditions: 1 mmmol icv alone or in combination with 1 mmmol of SAM
Method: Cannulated rats were injected (icv) with AFC or FTP (1 mmmol, 5 mml) in combination with PBS or 1 mmmol of SAM, injected similarly 5 min after injection of the FC analogs. Their movements were measured in an Animal Activity Monitor (AccuScan Electronics, Inc., Columbus, Ohio) and compared to those of control animals that received PBS.

[8] = 1.5 mmmol L-DOPA icv before 0.75 mmmol SAM, or SAM alone
[9] = 1 mmmol FC analog icv 5 min before 1 mmmol SAM
[10] = 1 mmmol NADA or SAH icv followed by 1 mmmol SAM, or SAM alone
[11] = 1 mmmol SAM icv, first 10 min interval of 2 h recording
[12] = 20 min, re-analysis with minimum amplitude 20 and minimum cycles per activity 20
[13] = SAM icv, 20 min recording, frequency window 8 to 20, minimum amplitude 10, minimum 10 cycles
[14] = raw data, 20 min monitoring, minimum amplitude 10, minimum cycles 10
[15] = 0 mmmol FC analog followed by 1 mmmol SAM

N[C@@H](Cc1ccc(O)c(O)c1)C(=O)O [L-DOPA, L-dihydroxyphenylalanine]
number of tremors [1, 8]: 25±4
total duration of tremors [1, 8]: 111 ± 22 s
effect on the SAM-induced PD-like symptoms [1]: little or no effect

CC(C)=CCCC(C)=CCCC(C)=CCSc1ccccc1C(=O)O [FTS, farnesylthiosalicylic acid]
methylation by rat nerve cell membranes in the presence of [3H-methyl]SAM [2]: never methylated
inhibition of the methylation of AFC and FTP ([2]; indicated concentrations of FTS): dose-dependently inhibited
tremors observed [3, 9]: significantly fewer tremors

C[S+](CC[C@H](N)C(=O)[O-])C[C@H]1O[C@@H](n2cnc3c(N)ncnc32)[C@H](O)[C@@H]1O (stereo partly drawn) [[^3H-methyl]SAM, S-[methyl-^3H]-SAM]
radioactivity associated with the membranes ([4]; [3H-methyl]SAM incubated with rat nerve cell membrane preparation, no competitor): about 6000 DPM

C[C@H](N)Cc1ccccc1 [amphetamine, d-amphetamine sulfate]
ipsiversive rotations within 90 min ([5]; amphetamine ip (5 mg/kg) alone, 7 days after intrastriatal 6-OHDA): 390±130

Nc1ncnc2c1ncn2[C@@H]1O[C@H](CSCC[C@H](N)C(=O)O)[C@@H](O)[C@H]1O [SAH, S-adenosyl-L-homocysteine]
total duration of tremors [1, 10]: 212±52
effect on the SAM-induced PD-like symptoms [1]: little or no effect
radioactivity associated with the membranes in presence of competitor ([4]; [3H-methyl]SAM, 100 mmM competitor in the incubation mixture): about 2000 DPM
effect on 3H-MPP+ association with membranes [4]: little affected

C[S+](CC[C@H](N)C(=O)O)C[C@H]1O[C@@H](n2cnc3c(N)ncnc32)[C@H](O)[C@@H]1O (stereo partly drawn) [SAM, S-Adenosyl-L-methionine]
number of tremors ([6]; 0.5 mmmol SAM icv, 20 min): minimal
total duration of tremors ([6]; 0.5 mmmol SAM icv, 20 min): minimal
increase in number of tremors ([6]; 0.75 mmmol SAM icv, 20 min): 7 fold
increase in total duration of tremors compared to the 0.5 mmmol injection ([6]; 0.75 mmmol SAM icv, 20 min): 9 fold
rate of tremor episodes during the first 10 min ([6]; 1 mmmol SAM icv): about 2 episodes per min
time that abnormal posture, hypokinesia and rigidity remained ([6]; 1 mmmol SAM icv): about 90 min
increase in number of tremors ([6]; 1 mmmol SAM icv, 20 min): 8 fold
increase in total duration of tremors compared to the 0.5 mmmol injection ([6]; 1 mmmol SAM icv, 20 min): 12 fold
number of tremors in the first 10 min interval [6, 11]: 19±4
total duration of tremors within the first 10 min [6, 11]: 120 ± 20 s
number of tremor activities [6, 12]: 70±8
total duration of tremor activity [6, 12]: 360 ± 18 s
average amplitude [6, 13]: 42.3±5
frequency [6, 13]: 12±0.1
number of cycles (waves) per activity [6, 13]: 54±6
time to onset of tremors, hypokinesia, rigidity and abnormal posture after injection ([6]; SAM into the lateral ventricle): 0.5 to 2 min
number of activities [6, 14]: 92±12
total duration of tremors [6, 14]: 470 ± 50 s
total duration of tremors [1, 10]: 273±128
number of tremors [1, 8]: 33±7
total duration of tremors [1, 8]: 170 ± 34 s
change of membrane-associated radioactivity after addition of non-radioactive compound (reversibility) ([4]; 100 mmM non-radioactive SAM added after 2 h incubation with [3H-methyl]SAM): neither increased nor decreased
effect on association of [3H-methyl]SAM radioactivity with membranes [4]: inhibited
effect on 3H-MPP+ association with membranes [4]: little affected
duration of tremors [3, 15]: 310 ± 70 s
number of tremors [3, 15]: 46±10

CC(=O)NCCc1ccc(O)c(O)c1 [NADA, N-acetyldopamine]
total duration of tremors [1, 10]: 200±43
effect on the SAM-induced PD-like symptoms [1]: little or no effect

C[n+]1ccc(-c2ccccc2)cc1 [MPP^+, 1-methyl-4-phenylpyridinium ion]
effect on association of [3H-methyl]SAM radioactivity with membranes [4]: No effect

CC(=O)N[C@@H](CSC/C=C(\C)CC/C=C(\C)CCC=C(C)C)C(=O)O [AFC, N-acetyl-S-farnesyl-L-cysteine]
methylation by rat nerve cell membranes in the presence of [3H-methyl]SAM [2]: avid methyl acceptors
tremors observed ([3]; 0.5 mmmol FC analog icv 5 min before 1 mmmol SAM): significant reduction of tremors
tremors observed [3, 9]: no tremors
movement activity [7]: significantly higher degree of movement activity
net rotations ([5]; AFC alone, no amphetamine): only few net rotations
increase of amphetamine-induced rotation ([5]; amphetamine ip plus AFC 1 mmmol icv, versus amphetamine alone): 2 fold
ipsiversive rotations within 90 min ([5]; amphetamine ip plus AFC 1 mmmol into the left lateral ventricle): 830±110
ipsiversive rotations within 90 min ([5]; amphetamine ip plus AFC 1 mmmol into the right lateral ventricle): 790±160
